Measurements from ChEMBL document CHEMBL1153821, “Identification of novel inhibitors of HCV RNA-dependent RNA polymerase by pharmacophore-based virtual screening and in vitro evaluation” (Bioorg Med Chem, 2009).
The source made the active and inactive calls. The rule behind the calls is not given here.

Key:
Hepatitis C virus [1] = assay: Inhibition of HCV1b NS5B polymerase at 100 uM after 2 hrs by RdRp activity assay; set-up: species or system Hepatitis C virus subtype 1b
Hepatitis C virus [2] = assay: Inhibition of HCV1b NS5B polymerase assessed as [alpha-32P]UTP incorporation by non-competitive double reciprocal plot; conditions: Hepatitis C virus subtype 1b
Hepatitis C virus [3] = assay: Inhibition of HCV1b NS5B polymerase after 2 hrs by RdRp activity assay; set-up: species or system Hepatitis C virus subtype 1b

Row | IC50 (Hepatitis C virus [3]) [µM] | SMILES | inhibition at 100 µM (Hepatitis C virus [1]) [%] | Activity (Hepatitis C virus [2])
1 | 20 | O=C(Nc1cccn(Cc2ccc(Cl)c(Cl)c2)c1=O)Sc1cccc(C(F)(F)F)c1 | > 80 | Active
2 | 20 | Nc1ncnc2c1ncn2/C=C/C(=O)c1ccccc1 | > 80 | Active
3 | 20 | Nc1ncnc2c1ncn2/C=C/C(=O)c1ccco1 | > 80 | Active
